In assay [1] the test system is Rattus norvegicus. Description: In vivo neuroprotective activity to block nitrogen (N2) lethality in male Dawley rats by ip administration at a dose of 40 mg/kg. It counts as functional. The settings on record: route intraperitoneal.
Assay [2] addresses T1, 5-hydroxytryptamine receptor 1A (Rattus norvegicus, UniProt P19327).
T1 sequence (P19327 whole entry): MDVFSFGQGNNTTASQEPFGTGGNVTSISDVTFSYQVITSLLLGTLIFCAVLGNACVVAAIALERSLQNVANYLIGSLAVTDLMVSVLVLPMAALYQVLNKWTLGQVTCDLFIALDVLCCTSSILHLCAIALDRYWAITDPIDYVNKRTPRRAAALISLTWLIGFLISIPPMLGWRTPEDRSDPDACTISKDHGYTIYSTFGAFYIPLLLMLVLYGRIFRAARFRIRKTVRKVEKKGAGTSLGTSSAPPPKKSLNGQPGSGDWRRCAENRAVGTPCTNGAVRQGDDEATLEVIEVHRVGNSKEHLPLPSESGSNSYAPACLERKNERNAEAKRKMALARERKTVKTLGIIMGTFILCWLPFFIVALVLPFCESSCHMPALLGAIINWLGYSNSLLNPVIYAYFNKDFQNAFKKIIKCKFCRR
Description: In vitro binding affinity towards serotonin 5-HT1A receptor by the displacement of [3H]8-OH-DPAT from rat hippocampus. It counts as tissue-based. A general note: Loss of bound radioactivity is the signal in a displacement assay; it reports binding, not function.

Assay [3] addresses 5-hydroxytryptamine receptor 2A (Rattus norvegicus, UniProt P14842). The assay can be described thus: In vitro binding affinity towards serotonin 5-HT2A receptor by the displacement of [3H]spiperone from rat cortical membranes. It is filed as cell membranes, Membrane.
The subject of assay [4] is Rattus norvegicus. The assay can be described thus: In vivo neuroprotective activity to block nitrogen (N2) lethality in male Dawley rats by ip administration at a dose of 80 mg/kg. It is filed as functional. The settings on record: route intraperitoneal.
For assay [5], the system named is Rattus norvegicus. Description: In vivo neuroprotective activity to block nitrogen (N2) lethality in male Dawley rats by ip administration at a dose of 20 mg/kg. It is filed as functional. The settings on record: route intraperitoneal.
Assay [6] concerns Rattus norvegicus. The assay can be described thus: In vivo neuroprotective activity to block nitrogen (N2) lethality in male Dawley rats by ip administration at a dose of 100 mg/kg. It counts as functional. The settings on record: route intraperitoneal.
Assay [7] has as its system Rattus norvegicus. Description: In vivo neuroprotective activity to block nitrogen (N2) lethality in male Dawley rats by ip administration at a dose of 50/100 mg/kg. It counts as functional.

Chain of 5-hydroxytryptamine receptor 2A (P14842 whole entry): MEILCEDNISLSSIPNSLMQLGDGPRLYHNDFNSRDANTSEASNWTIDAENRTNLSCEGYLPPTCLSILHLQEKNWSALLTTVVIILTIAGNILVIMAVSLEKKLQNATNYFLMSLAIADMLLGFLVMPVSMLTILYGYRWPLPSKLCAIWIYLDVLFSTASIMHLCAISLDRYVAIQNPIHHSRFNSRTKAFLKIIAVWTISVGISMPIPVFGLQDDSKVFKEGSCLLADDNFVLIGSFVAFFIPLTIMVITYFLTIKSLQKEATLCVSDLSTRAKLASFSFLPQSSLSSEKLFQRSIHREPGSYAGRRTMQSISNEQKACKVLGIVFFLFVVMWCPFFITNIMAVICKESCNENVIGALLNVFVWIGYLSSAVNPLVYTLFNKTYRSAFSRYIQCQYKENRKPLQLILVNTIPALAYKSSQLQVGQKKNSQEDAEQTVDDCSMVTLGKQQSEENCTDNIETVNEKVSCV

The IC50 is the concentration that inhibits the measured activity by half. A low value points to greater potency. The molecule `OC(CCCN1CCN(c2ncc(F)cn2)CC1)(c1ccc(F)cc1)C1CCCCC1` (configuration not stated) returned a Protection in the assay with Rattus norvegicus [1] of 75%. The 50% inhibitory concentration (IC50) was determined as 50 nM in assay [2] and 336 nM in assay [3].

`O=C(NC(CCCN1CCN(c2ncc(F)cn2)CC1)c1ccc(F)cc1)c1ccc(F)cc1` (configuration not stated) returned a Protection in the assay on Rattus norvegicus [1] of 88%. The IC50 in assay [2] is 106 nM; in assay [3], 468 nM.

On to `Fc1cnc(N2CCN(CCCCC3CCCCC3)CC2)nc1`, for which the Protection with Rattus norvegicus [4] was 75%. For the same molecule, the IC50 in assay [2] was 315 nM.

The molecule `Fc1ccc(OCCCN2CCN(c3ncc(F)cn3)CC2)cc1` yielded a Protection with Rattus norvegicus [1] of 25%. The IC50 was 145 nM in assay [2] and 141 nM in assay [3].

Molecule `O=S(=O)(NC(CCCN1CCN(c2ncc(F)cn2)CC1)c1ccc(F)cc1)c1ccc(F)cc1` (configuration not stated) showed a Protection with Rattus norvegicus [4] of 100%. The IC50 was determined as 1810 nM in assay [2] and 3400 nM in assay [3].

`CC(=O)NC(CCCN1CCN(c2ncc(F)cn2)CC1)c1ccc(F)cc1` (configuration not stated): in the assay on Rattus norvegicus [1], the Protection worked out at 13%. In addition, the IC50 in assay [2] was 289 nM.

`CC(=O)OC(CCCN1CCN(c2ncc(F)cn2)CC1)c1ccc(F)cc1` (configuration not stated) displayed a Protection with Rattus norvegicus [4] of 100%. In addition, the IC50 in assay [2] was 46 nM; in assay [3], 504 nM.

`O=C(OC(CCCN1CCN(c2ncc(F)cn2)CC1)c1ccc(F)cc1)c1ccccc1` (configuration not stated) gave a Protection in the assay on Rattus norvegicus [4] of 63%. This molecule showed an IC50 in assay [2] of 581 nM.

`OC(CCCN1CCN(c2ncc(F)cn2)CC1)C1CCCCC1` (configuration not stated) had a Protection with Rattus norvegicus [1] of 100%. The same molecule returned an IC50 in assay [2] of 30 nM.

`O=S(=O)(NC(CCCN1CCN(c2ncc(F)cn2)CC1)C1CCCCC1)c1ccc(F)cc1` (configuration not stated) registered a Protection in the assay with Rattus norvegicus [5] of 50%. In assay [3], this molecule gave an IC50 of 760 nM.

Regarding `O=C(NC(CCCN1CCN(c2ncc(F)cn2)CC1)C1CCCCC1)c1ccc(F)cc1` (configuration not stated), in the assay on Rattus norvegicus [5], the Protection turned out to be 50%. In assay [3], this molecule showed an IC50 of 760 nM.

On to `O=S(=O)(NC(CCCN1CCN(c2ncc(F)cn2)CC1)c1ccc(F)c2ccccc12)c1ccc(F)cc1` (configuration not stated), for which, in the assay with Rattus norvegicus [1], the Protection is 38%.

For the molecule `Fc1ccc(SCCCN2CCN(c3ncc(F)cn3)CC2)cc1`, the Protection with Rattus norvegicus [1] is reported as 13%. This molecule displayed an IC50 in assay [2] of 129 nM.

`NC(CCCN1CCN(c2ncc(F)cn2)CC1)C1CCCCC1` (configuration not stated) yielded a Protection in the assay on Rattus norvegicus [5] of 50%. This molecule displayed an IC50 in assay [2] of 257 nM.

As to `Fc1ccc(CCCCN2CCN(c3ncc(F)cn3)CC2)cc1`, the Protection in the assay with Rattus norvegicus [1] is on record as 75%. For the same molecule, the IC50 is 71 nM in assay [2] and 212 nM in assay [3].

Molecule `NC(CCCN1CCN(c2ncc(F)cn2)CC1)c1ccc(F)c2ccccc12` (configuration not stated) came in with a Protection with Rattus norvegicus [1] of 38%. The IC50 in assay [2] came out at 345 nM.

The molecule `OC(CCCN1CCN(c2ncc(F)cn2)CC1)c1ccc(F)c2ccccc12` (configuration not stated) came in with a Protection in the assay with Rattus norvegicus [6] of 100%. Further, the IC50 in assay [2] is 562 nM; in assay [3] it was 1010 nM.

On to `O=S(=O)(CCCN1CCN(c2ncc(F)cn2)CC1)c1ccc(F)cc1`, for which the Protection with Rattus norvegicus [1] came out at 25%. For the same molecule, the IC50 in assay [2] was 461 nM.

Turning to `Fc1cnc(N2CCN(CCCCc3ccc(F)c4ccccc34)CC2)nc1`, the Protection in the assay on Rattus norvegicus [5] is listed as 100%. Besides, the IC50 in assay [2] is 414 nM; in assay [3], 590 nM.

In turn, `OC(CCCN1CCN(c2ncc(F)cn2)CC1)c1ccc(F)cc1` (configuration not stated) [BMY-14802] came in with a Protection with Rattus norvegicus [7] of 63%. For the same molecule, the IC50 in assay [3] came to 1700 nM.

The record behind these values is ChEMBL document CHEMBL1127947, “Synthesis and evaluation of n-substituted 1-(5-fluoro-2-pyrimidinyl)piperazine derivatives as potential anti-ischemic agents” (Bioorg Med Chem Lett, 1994).
